The values below come from patent EP0333831B1, “USE OF METALLOPORPHYRINS TO REVERSE THE TOXIC EFFECT OF TUMOR THERAPY” (priority 1987, dated 1989).

Bounds are passed on as bounds.

Type in all cases: in vivo, Sprague-Dawley rats
One series concerns microsomal heme. Description: hepatic microsomal heme content in rats treated with doxorubicin, with or without SnPP. How it is done: (§1) The efficacy of the products of the invention for their newly discovered utility was established by experiments with three groups of male Sprague-Dawley rats (males, 150-200 grams, 16 per group). The rats were maintained on ad lib water and powdered rat chow (Purina) during the experiments. Group A was untreated, Group B was treated subcutaneously with doxorubicin alone on day 0, and Group C was treated with SnPP one day prior to doxorubicin which was administered on day 0.
(§2) The animals utilized in the tests were acclimated in metabolic cages maintained in a controlled environment with a 12h/12h light/dark cycle.
(§3) The compositions for parenteral administration were freshly prepared for each injection by addition of 0.4 N NaOH (20% v/v) to prepare a solution at pH 12, adjusted to pH 7.5 with 1 NHCl and made to final volume with 0.9% saline. The dosage level per injection was 50 µmol/kg b.w. Control animals were administered an equivalent amount of saline.
(§4) Animals were deprived of food but allowed free access to water for 16 hours prior to sacrifice. […] Cytochrome P-450 content was determined by the methods of Omura and Sato [J. Biol. Chem., 239: 2379 (1966) and 239: 2370 (1966)], and protein concentration by the method of Lowry et al [J. Biol. Chem., 193 265 (1951)] using crystalline bovine serum albumin as standard. […]

The next series relates to cytochrome P-450. Description: hepatic microsomal cytochrome P-450 content in rats treated with doxorubicin, with or without SnPP. How it is done:
as §1, §2, §3, §4

A further series relates to heme metabolism. Here is the method:
as §1
It will be seen that the increase in heme oxygenase activity and decrease in ALA synthetase activity and microsomal content of cytochrome P-450 were at a maximum on day 2 and returned to normal by day 10.
as §2, §3
Animals were deprived of food but allowed free access to water for 16 hours prior to sacrifice. Livers were perfused in situ with ice-cold saline and homogenized in tris-HCL (0.01 M, pH 7.4) buffer containing sucrose (0.25 M). Homogenates (25% w/v) were centrifuged at 9000 g for 20 min, and the resulting mitochondrial pellet was used for the assay of ALA-synthetase activity. The 9000 xg supernatant was centrifuged at 105,000 xg for 60 min in a Beckman L5-50 ultracentrifuge. The microsomal pellet was resuspended in a minimum volume of potassium phosphate buffer (0.1 M, pH 7.4) and the cytosol was used as a source of biliverdin reductase. Cytochrome P-450 content was determined by the methods of Omura and Sato [J. Biol. Chem., 239: 2379 (1966) and 239: 2370 (1966)], and protein concentration by the method of Lowry et al [J. Biol. Chem., 193 265 (1951)] using crystalline bovine serum albumin as standard. […]

A further series has as its system hepatic heme oxygenase. Nature of the series: hepatic heme oxygenase activity in rats treated with doxorubicin, with or without SnPP. Conditions: SnPP (50 µmol/kg b.w.) one day prior to doxorubicin 10 mg/kg b.w.; compared to the group treated with doxorubicin alone. Here is the method:
as §1, §2, §3, §4

Another series concerns ALA synthetase. Nature of the series: hepatic ALA synthetase activity in rats treated with doxorubicin, with or without SnPP. Conditions: SnPP (50 µmol/kg b.w.) one day prior to doxorubicin 10 mg/kg b.w.; compared to the group treated with doxorubicin alone. Here is the method:
as §1, §2, §3, §4

Where [1] appears, read: doxorubicin 10 mg/kg b.w. subcutaneous, measured 2 days after administration, vs untreated, P < 0.05.
[2] abbreviates: SnPP one day prior to doxorubicin 10 mg/kg b.w., compared to the untreated group.

In the case of `COc1cccc2c1C(=O)c1c(O)c3c(c(O)c1C2=O)C[C@@](O)(C(=O)CO)C[C@@H]3O[C@H]1C[C@H](N)[C@H](O)[C@H](C)O1` [doxorubicin, reference compound], the “decrease in the microsomal content of heme” value with microsomal heme (setting [1]) was 45%. Further, the “decrease in the microsomal content of cytochrome P-450” value in the series on cytochrome P-450 (setting [1]) is listed as 18%. For the same molecule, in the series on heme metabolism (rat, in vivo), the “time of maximum increase in heme oxygenase activity and decrease in ALA synthetase activity and microsomal content of cytochrome P-450” value is 2 days; the “time of return to normal of heme oxygenase activity, ALA synthetase activity and microsomal cytochrome P-450” value is not above 10 days.

Turning to tin protoporphyrin-IX [SnPP], the “decrease in hepatic heme oxygenase activity” value in the series on hepatic heme oxygenase was 92%. Besides, in the series on microsomal heme (setting [2]), the “levels of microsomal heme” value is “substantially identical to those in the untreated group”. Also, the “increase in hepatic ALA-synthetase activity” value in the series with ALA synthetase was 35%. Also, the “levels of hepatic cytochrome P-450” value in the series with cytochrome P-450 (setting [2]) is “substantially identical to those in the untreated group”. In addition, the “prevention of doxorubicin-induced variations in heme metabolism” value in the series on heme metabolism (metalloporphyrin administered one day prior to doxorubicin) is reported as “prevented the occurrence of these variations in heme metabolism”.
